{
  "source": "patent US7294651B2",
  "about": "(priority 2001, dated 2007)",
  "key": {"S. aureus (MN8)": {"tested_on": "S. aureus (MN8)", "assay_type": "cell-based"}, "TSST-1": {"tested_on": "TSST-1", "assay_type": "cell-based, S. aureus", "design": "ng TSST-1 per CFU: scale not given here"}},
  "note": "“And” between values parts separate entries of the source, which are not always exact repeats. Equal entries are not always repeated.",
  "data": [
    {"molecule": "CC(=O)/C=C/C1=C(C)CCCC1(C)C", "note": "[Beta-ionone]", "values": [
      {"measurement": "CFU/mL", "setting": "S. aureus (MN8)", "result": "1.8E+08", "unit": "CFU/mL"},
      {"measurement": "Optical Density", "setting": "S. aureus (MN8)", "result": 0.688},
      {"measurement": "Reduction of Toxin %", "setting": "TSST-1", "result": 100, "unit": "%"},
      {"measurement": "ng TSST-1 per OD Unit", "setting": "TSST-1", "result": "none"}
    ]},
    {"molecule": "myreth-3-myristate [Cetiol]", "values": [
      {"measurement": "CFU/mL × 10^8", "setting": "S. aureus (MN8)", "result": "4.2 CFU/mL × 10^8 and 5.9 CFU/mL × 10^8 and 5.0 CFU/mL × 10^8"},
      {"measurement": "ng TSST-1 per CFU", "setting": "TSST-1", "result": "371 and 196 and 200"},
      {"measurement": "ng TSST-1 per mL", "setting": "TSST-1", "result": "1556 ng TSST-1 per mL and 1147 ng TSST-1 per mL and 989 ng TSST-1 per mL"}
    ]},
    {"molecule": "CC1CCC(C(C)C)C(O)C1", "note": "(centres unmarked) [Menthol, menthol]", "values": [
      {"measurement": "effect on the growth of S. aureus cells", "setting": "S. aureus (MN8)", "result": "minimal, if any, effect"}
    ]}
  ]
}
